{"source": "patent US8283361B2", "about": "(AstraZeneca AB, priority 2008, dated 2012)", "molecular_target": "S. aureus GyrB ATPase (Staphylococcus aureus, UniProt P0A0K8)", "sequence (P0A0K8 whole entry)": "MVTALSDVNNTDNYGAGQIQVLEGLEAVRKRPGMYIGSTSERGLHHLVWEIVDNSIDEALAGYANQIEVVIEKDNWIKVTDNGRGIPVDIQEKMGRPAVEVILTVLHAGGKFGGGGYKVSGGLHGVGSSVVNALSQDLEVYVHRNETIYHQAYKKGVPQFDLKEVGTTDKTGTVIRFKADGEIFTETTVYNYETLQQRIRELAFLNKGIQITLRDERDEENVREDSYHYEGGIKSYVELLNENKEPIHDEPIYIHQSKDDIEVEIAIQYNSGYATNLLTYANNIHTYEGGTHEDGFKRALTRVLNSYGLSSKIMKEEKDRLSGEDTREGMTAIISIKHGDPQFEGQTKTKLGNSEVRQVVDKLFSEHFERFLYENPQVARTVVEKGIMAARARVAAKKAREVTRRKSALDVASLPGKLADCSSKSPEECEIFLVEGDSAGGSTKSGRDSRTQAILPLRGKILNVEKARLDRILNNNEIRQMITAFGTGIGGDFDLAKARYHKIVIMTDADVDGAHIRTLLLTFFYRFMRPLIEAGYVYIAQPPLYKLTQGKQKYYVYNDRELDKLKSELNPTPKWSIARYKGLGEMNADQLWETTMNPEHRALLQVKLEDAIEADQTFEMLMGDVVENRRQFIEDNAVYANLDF", "sequence (P0AES4 whole entry, further chain)": "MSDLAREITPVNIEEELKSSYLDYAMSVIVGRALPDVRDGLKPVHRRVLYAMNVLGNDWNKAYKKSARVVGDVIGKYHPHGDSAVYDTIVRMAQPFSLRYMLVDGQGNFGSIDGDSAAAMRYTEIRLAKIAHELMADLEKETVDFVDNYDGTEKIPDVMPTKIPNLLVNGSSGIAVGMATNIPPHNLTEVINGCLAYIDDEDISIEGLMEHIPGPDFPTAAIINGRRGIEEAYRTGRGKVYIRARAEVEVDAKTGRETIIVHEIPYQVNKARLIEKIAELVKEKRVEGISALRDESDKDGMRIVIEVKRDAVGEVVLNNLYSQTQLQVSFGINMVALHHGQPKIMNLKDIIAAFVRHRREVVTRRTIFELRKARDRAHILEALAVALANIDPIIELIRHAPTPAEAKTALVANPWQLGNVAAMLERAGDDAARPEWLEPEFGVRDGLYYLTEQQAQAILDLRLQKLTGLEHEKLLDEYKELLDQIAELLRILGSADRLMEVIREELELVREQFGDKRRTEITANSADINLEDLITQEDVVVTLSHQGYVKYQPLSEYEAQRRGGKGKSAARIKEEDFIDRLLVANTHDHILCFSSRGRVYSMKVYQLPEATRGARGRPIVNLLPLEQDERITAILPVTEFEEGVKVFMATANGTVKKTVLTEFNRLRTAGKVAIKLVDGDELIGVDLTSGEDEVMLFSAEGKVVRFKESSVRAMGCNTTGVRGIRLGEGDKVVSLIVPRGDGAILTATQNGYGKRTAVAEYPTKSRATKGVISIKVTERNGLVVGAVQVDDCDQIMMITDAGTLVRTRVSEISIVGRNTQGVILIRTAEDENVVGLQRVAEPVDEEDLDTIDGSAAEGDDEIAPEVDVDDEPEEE", "assay": "biochemical", "conditions": "compound at 1 μM; one value per test if tested more than once; read-out: % Inhibition of S. aureus GyrB ATPase", "how_it_was_run": "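IC50 values derive from 10-point titrations of compound (in DMSO). Phosphate formed from 250 μM ATP was quantified by acidic molybdate/malachite green after quenching.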", "data": [{"smiles": "CCNC(=O)Nc1cc(-c2nc(C(F)(F)F)cs2)c(-c2ccc3c(=O)c(C(=O)NCCN4CCOCC4)cn(Cc4cccnc4)c3c2)cn1", "note": "[Example 361, 7-{6-[(ethylcarbamoyl)amino]-4-[4-(trifluoromethyl)-1,3-thiazol-2-yl]pyridin-3-yl}-N-[2-(morpholin-4-yl)ethyl]-4-oxo-1-(pyridin-3-ylmethyl)-1,4-dihydroquinoline-3-carboxamide]", "values": [{"measurement": "inhibition at 1 µM", "result": 97, "unit": "%"}]}, {"smiles": "CCNC(=O)Nc1cc(-c2nc(C(F)(F)F)cs2)c(-c2ccc3c(c2)c(=O)c(C(=O)O)cn3[C@H](CO)C(C)(C)C)cn1", "note": "[Example 81, 6-{6-[(ethylcarbamoyl)amino]-4-[4-(trifluoromethyl)-1,3-thiazol-2-yl]pyridin-3-yl}-1-[(1S)-1-(hydroxymethyl)-2,2-dimethylpropyl]-4-oxo-1,4-dihydroquinoline-3-carboxylic acid]", "values": [{"measurement": "inhibition at 1 µM", "result": 96, "unit": "%"}]}, {"smiles": "CCNC(=O)Nc1cc(-c2nc(C(F)(F)F)cs2)c(-c2ccc3c(=O)c(C(=O)NCCN4CCN(C)CC4)cn(CCOC)c3c2)cn1", "note": "[Example 373, 7-{6-[(Ethylcarbamoyl)amino]-4-[4-(trifluoromethyl)-1,3-thiazol-2-yl]pyridin-3-yl}-1-(2-methoxyethyl)-N-[2-(4-methylpiperazin-1-yl)ethyl]-4-oxo-1,4-dihydroquinoline-3-carboxamide]", "values": [{"measurement": "inhibition at 1 µM", "result": 94, "unit": "%"}]}, {"smiles": "CCNC(=O)Nc1cc(-c2nc(C(F)(F)F)cs2)c(-c2ccc3c(c2)c(=O)c(C(=O)O)cn3[C@H](CO)[C@@H](C)O)cn1", "note": "[Example 73, 1-((2R,3R)-1,3-dihydroxybutan-2-yl)-6-(6-(3-ethylureido)-4-(4-(trifluoromethyl)thiazol-2-yl)pyridin-3-yl)-4-oxo-1,4-dihydroquinoline-3-carboxylic acid]", "values": [{"measurement": "inhibition at 1 µM", "result": 105, "unit": "%"}]}, {"smiles": "CCNC(=O)Nc1cc(-c2nc(C(F)(F)F)cs2)c(-c2ccc3c(c2)c(=O)c(C(=O)O)cn3[C@H]2CCCNC2)cn1", "note": "[Example 245, (S)-6-(6-(3-ethylureido)-4-(4-(trifluoromethyl)thiazol-2-yl)pyridin-3-yl)-4-oxo-1-(piperidin-3-yl)-1,4-dihydroquinoline-3-carboxylic acid]", "values": [{"measurement": "inhibition at 1 µM", "result": 105, "unit": "%"}]}, {"smiles": "CCCNC(=O)Nc1cc(-c2nc(C(F)(F)F)cs2)c(-c2ccc3c(c2)c(=O)c(C(=O)NCCO)cn3CCC2CCOCC2)cn1", "note": "[Example 214, N-(2-hydroxyethyl)-4-oxo-6-(6-(3-propylureido)-4-(4-(trifluoromethyl)thiazol-2-yl)pyridin-3-yl)-1-(2-(tetrahydro-2H-pyran-4-yl)ethyl)-1,4-dihydroquinoline-3-carboxamide]", "values": [{"measurement": "inhibition at 1 µM", "result": 118, "unit": "%"}]}, {"smiles": "CCNC(=O)Nc1cc(-c2nc(C(F)(F)F)cs2)c(-c2ccc3c(c2)c(=O)c(C(=O)N2CCNCC2)cn3C2CN(C)C2)cn1", "note": "[Example 171, 1-ethyl-3-(5-(1-(1-methylazetidin-3-yl)-4-oxo-3-(piperazine-1-carbonyl)-1,4-dihydroquinolin-6-yl)-4-(4-(trifluoromethyl)thiazol-2-yl)pyridin-2-yl)urea]", "values": [{"measurement": "inhibition at 1 µM", "result": 112, "unit": "%"}]}, {"smiles": "CCNC(=O)Nc1cc(-c2nc(C(F)(F)F)cs2)c(-c2ccc3c(c2)c(=O)c(C(=O)O)cn3C[C@H]2CCNC2)cn1", "note": "[Example 243, (S)-6-(6-(3-ethylureido)-4-(4-(trifluoromethyl)thiazol-2-yl)pyridin-3-yl)-4-oxo-1-(pyrrolidin-3-ylmethyl)-1,4-dihydroquinoline-3-carboxylic acid]", "values": [{"measurement": "inhibition at 1 µM", "result": 116, "unit": "%"}]}, {"smiles": "CCNC(=O)Nc1cc(-c2nc(C(F)(F)F)cs2)c(-c2ccc3c(c2)c(=O)c(C(=O)O)cn3CC2CCCN(C)C2)cn1", "note": "(stereo not drawn) [Example 313, 6-(6-(3-ethylureido)-4-(4-(trifluoromethyl)thiazol-2-yl)pyridin-3-yl)-1-((1-methylpiperidin-3-yl)methyl)-4-oxo-1,4-dihydroquinoline-3-carboxylic acid]", "values": [{"measurement": "inhibition at 1 µM", "result": 103, "unit": "%"}]}]}
